Reference: ChEMBL document CHEMBL5244231, “Total synthesis, chemical modification and structure-activity relationship of bufadienolides” (Eur J Med Chem, 2020)

How the values were obtained:
[1] = biological target: T1, Androgen receptor (Homo sapiens, UniProt P10275); experiment: Binding affinity to AR (unknown origin) incubated for 4 hrs by fluorescence polarization assay
T1 sequence (P10275 whole entry): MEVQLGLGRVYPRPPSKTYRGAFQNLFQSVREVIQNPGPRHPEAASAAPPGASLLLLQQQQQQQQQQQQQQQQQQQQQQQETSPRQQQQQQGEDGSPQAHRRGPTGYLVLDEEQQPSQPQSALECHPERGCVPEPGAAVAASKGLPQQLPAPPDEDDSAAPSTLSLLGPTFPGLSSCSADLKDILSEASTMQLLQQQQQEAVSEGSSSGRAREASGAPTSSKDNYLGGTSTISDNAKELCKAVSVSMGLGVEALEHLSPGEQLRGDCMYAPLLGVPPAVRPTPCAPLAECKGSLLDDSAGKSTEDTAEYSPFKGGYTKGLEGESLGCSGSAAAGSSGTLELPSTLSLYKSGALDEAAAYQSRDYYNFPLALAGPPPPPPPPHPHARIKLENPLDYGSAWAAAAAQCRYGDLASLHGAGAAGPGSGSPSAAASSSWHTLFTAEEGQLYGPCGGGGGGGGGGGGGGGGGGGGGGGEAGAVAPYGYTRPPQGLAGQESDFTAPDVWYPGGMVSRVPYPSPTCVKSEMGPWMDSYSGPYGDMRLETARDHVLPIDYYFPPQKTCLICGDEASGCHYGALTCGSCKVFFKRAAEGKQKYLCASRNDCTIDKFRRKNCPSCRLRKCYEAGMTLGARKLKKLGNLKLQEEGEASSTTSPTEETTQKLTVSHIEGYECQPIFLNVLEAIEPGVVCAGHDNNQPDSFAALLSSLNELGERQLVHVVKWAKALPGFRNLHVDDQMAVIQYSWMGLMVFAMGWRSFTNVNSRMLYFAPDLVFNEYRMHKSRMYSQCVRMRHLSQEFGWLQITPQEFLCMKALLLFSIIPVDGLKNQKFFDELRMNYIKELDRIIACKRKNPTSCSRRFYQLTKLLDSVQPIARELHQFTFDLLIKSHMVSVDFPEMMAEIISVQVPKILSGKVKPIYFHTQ

[2] = biological target: Sodium/potassium-transporting ATPase; experiment: Inhibition of NA+/K+ ATPase (unknown origin) activity assessed as inhibition constant; format: protein-complex assay, Homo sapiens
[3] = system: DU-145; experiment: Antiproliferative activity against human DU-145 cells assessed as cell growth inhibition; format: functional, cell-based
[4] = system: PC-3; experiment: Antiproliferative activity against human PC-3 cells assessed as cell growth inhibition; format: functional, cell-based
[5] = system: LNCaP; experiment: Antiproliferative activity against human LNCaP cells assessed as cell growth inhibition; format: functional, cell-based
[6] = system: HeLa; experiment: Antiproliferative activity against human HeLa cells assessed as cell growth inhibition by MTT assay; format: functional, cell-based
[7] = system: HepG2; experiment: Antiproliferative activity against human HepG2 cells assessed as cell growth inhibition by MTT assay; format: functional, cell-based
[8] = system: Daudi; experiment: Antiproliferative activity against human Daudi cells assessed as cell growth inhibition by MTT assay; format: functional, cell-based
[9] = system: MV4-11; experiment: Antiproliferative activity against human MV4-11 cells assessed as cell growth inhibition by MTT assay; format: functional, cell-based
[10] = system: Jurkat; experiment: Antiproliferative activity against human Jurkat cells assessed as cell growth inhibition by MTT assay; format: functional, cell-based
[11] = system: HT-1080; experiment: Antiproliferative activity against human HT-1080 cells assessed as cell growth inhibition by MTT assay; format: functional, cell-based
[12] = system: PC-3; experiment: Antiproliferative activity against human PC-3 cells assessed as cell growth inhibition by MTT assay; format: functional, cell-based
[13] = system: AGS; experiment: Antiproliferative activity against human AGS cells assessed as cell growth inhibition by MTT assay; format: functional, cell-based
[14] = system: MCF7; experiment: Antiproliferative activity against human MCF7 cells assessed as cell growth inhibition by MTT assay; format: functional, cell-based
[15] = system: NCI-H2228; experiment: Antiproliferative activity against human NCI-H2228 cells assessed as cell growth inhibition by MTT assay; format: functional, cell-based
[16] = system: MV4-11; experiment: Antitumor activity in human MV4-11 cells xenografted in mouse assessed as tumor growth inhibition at 2 mg/kg, iv administered every other day for 21 days relative to control; format: functional; details: MV4-11, 504 h, time 21 day
[17] = system: MV4-11; experiment: Antitumor activity in human MV4-11 cells xenografted in mouse assessed as tumor growth inhibition at 4 mg/kg, IG administered every other day for 21 days relative to control; format: functional; details: MV4-11, po, 504 h, time 21 day
[18] = system: HeLa; experiment: Antiproliferative activity against human HeLa cells assessed as cell growth inhibition incubated for 72 hrs by MTT assay; format: functional, cell-based
[19] = system: A549; experiment: Antiproliferative activity against human A549 cells assessed as cell growth inhibition incubated for 72 hrs by MTT assay; format: functional, cell-based; details: A549, 72 h
[20] = system: LNCaP; experiment: Antiproliferative activity against human LNCaP cells assessed as cell growth inhibition incubated for 48 hrs by MTT assay; format: functional, cell-based
[21] = system: PC-3; experiment: Antiproliferative activity against human PC-3 cells assessed as cell growth inhibition incubated for 48 hrs by MTT assay; format: functional, cell-based; details: PC-3, 48 h
[22] = biological target: Sodium/potassium-transporting ATPase; experiment: Inhibition of NA+/K+ ATPase (unknown origin) activity; format: protein-complex assay, Homo sapiens

## C[C@]12CC[C@H](O)CC1CCC1C3=CC[C@H](c4ccc(=O)oc4)[C@@]3(C)CCC12 (some centres undefined)
[1]
  IC50: > 50 µM

## CN(C)C(=O)/C=C/C1=CO[C@]23CCC1[C@@]2(C)CC[C@H]1[C@H]3CC[C@@H]2C[C@@H](O)CC[C@@]21C
[2]
  Ki: 70 µM
[3]
  IC50: 10 µM
[4]
  IC50: 10 µM
[5]
  IC50: 10 µM

## C[C@]12CC[C@H](OC(=O)NC3CCNCC3)C[C@H]1CC[C@@H]1[C@@H]2CC[C@]2(C)[C@@H](c3ccc(=O)oc3)CC[C@]12O
[6]
  IC50: 0.0003 µM
[7]
  IC50: 0.0003 µM
[8]
  IC50: 0.0003 µM
[9]
  IC50: 0.0003 µM
[10]
  IC50: 0.0003 µM
[11]
  IC50: 0.0003 µM
[12]
  IC50: 0.0003 µM
[13]
  IC50: 0.0003 µM
[14]
  IC50: 0.0003 µM
[15]
  IC50: 0.0003 µM
[16]
  inhibition in vivo at 2 mg/kg: 100%
[17]
  inhibition in vivo at 4 mg/kg: 100%

## C[C@]12CC[C@H](O)C[C@H]1CC[C@@H]1[C@@H]2CC[C@]2(C)[C@@H](c3ccc(=O)[nH]c3)CC[C@]12O
[2]
  Ki: 70 µM
[3]
  IC50: 10 µM
[4]
  IC50: 10 µM
[5]
  IC50: 10 µM

## C[C@]12CC[C@H](OC(=O)C3CCNCC3)C[C@H]1CC[C@@H]1[C@@H]2CC[C@]2(C)[C@@H](c3ccc(=O)oc3)CC[C@]12O
[18]
  IC50: 0.00076 µM
[19]
  IC50: 0.00034 µM

## C[C@]12CC[C@H](OC(=O)N3CCNCC3)C[C@H]1CC[C@@H]1[C@@H]2CC[C@]2(C)[C@@H](c3ccc(=O)oc3)CC[C@]12O
[6]
  IC50: 0.00077 µM

## C[C@]12CC[C@H](O)CC1CCC1=C3CC[C@H](c4ccc(=O)oc4)[C@@]3(C)CCC12 (some centres undefined)
[1]
  IC50: > 50 µM
[20]
  IC50: 6.8 µM
[21]
  IC50: 16.4 µM
[22]
  IC50: 5.6 µM

## C[C@]12CC[C@H](O)C[C@H]1CC[C@H]1C3=CC[C@H](c4ccc(=S)oc4)[C@@]3(C)CC[C@@H]12
[22]
  IC50: 35.8 µM
